From patent US5001223A, “Parathyroid hormone antagonists with enhanced metabolic properties” (Merck & Co., Inc., priority 1989, dated 1991)

Target: T1, parathyroid hormone cell surface receptor (bovine renal cortical plasma membranes) (Bos taurus, UniProt Q1LZF7)
T1 construct: from tissue; host or cells: bovine renal cortex plasma membranes
T1 sequence (Q1LZF7 29-589): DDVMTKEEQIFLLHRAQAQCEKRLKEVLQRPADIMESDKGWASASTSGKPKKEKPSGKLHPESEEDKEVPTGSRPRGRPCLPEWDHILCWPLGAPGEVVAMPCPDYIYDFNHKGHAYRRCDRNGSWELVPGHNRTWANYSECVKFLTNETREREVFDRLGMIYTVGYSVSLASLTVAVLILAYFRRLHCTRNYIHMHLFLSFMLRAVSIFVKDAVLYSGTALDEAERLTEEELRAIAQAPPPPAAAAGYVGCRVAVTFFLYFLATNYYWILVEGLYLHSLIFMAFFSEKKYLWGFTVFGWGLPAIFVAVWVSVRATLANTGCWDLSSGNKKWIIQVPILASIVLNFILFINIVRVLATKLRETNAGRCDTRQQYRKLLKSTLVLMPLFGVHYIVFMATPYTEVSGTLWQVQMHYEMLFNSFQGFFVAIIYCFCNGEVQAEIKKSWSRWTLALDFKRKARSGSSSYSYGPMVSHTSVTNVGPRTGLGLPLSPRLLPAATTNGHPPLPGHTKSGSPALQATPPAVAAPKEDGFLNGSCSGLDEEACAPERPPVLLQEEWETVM
Assay: PTH binding assay (receptor assay, radioligand [Nle^8,18,^125 I-Tyr^34 ]bPTH(1-34)NH2)
Settings: radioligand 25,000 cpm, Tris-containing buffer, 30 min. at 21° C.
Description: PTH analogues were analysed in a new receptor assay which modified the assay reported in Rosenblatt et al., Endocrin. 107: 545-550 (1980). The binding assay used [Nle^8,18,^125 I-Tyr^34 ]bPTH(1-34)NH2which was purified by HPLC (Novapak C18, 32-35% CH3 CN in 0.1% TFA) and was stored as aliquots in 25 mM TrisHCl/1% BSA at -70° C. Bovine renal cortical plasma membranes were incubated with radioligand (25,000 cpm) in a Tris-containing buffer (250 ul) for 30 min. at 21° C. Once equilibrium was reached, bound and free radioligand were separated by centrifugation. High specific binding (85%) to bovine renal cortical membranes was obtained consistently.

SMILES: CN[C@@H](Cc1ccccc1)C(=O)N[C@@H](CCSC)C(=O)N[C@@H](Cc1c[nH]cn1)C(=O)N[C@@H](CC(N)=O)C(=O)N[C@@H](CC(C)C)C(=O)NCC(=O)N[C@@H](CCCCN)C(=O)N[C@@H](Cc1c[nH]cn1)C(=O)N[C@@H](CC(C)C)C(=O)N[C@@H](CO)C(=O)N[C@@H](CO)C(=O)N[C@@H](CCSC)C(=O)N[C@@H](CCC(=O)O)C(=O)N[C@@H](CCCNC(=N)N)C(=O)N[C@H](C(=O)N[C@@H](CCC(=O)O)C(=O)N[C@@H](Cc1c[nH]c2ccccc12)C(=O)N[C@@H](CC(C)C)C(=O)N[C@@H](CCCNC(=N)N)C(=O)N[C@@H](CCCCN)C(=O)N[C@@H](CCCCN)C(=O)N[C@@H](CC(C)C)C(=O)N[C@@H](CCC(N)=O)C(=O)N[C@@H](CC(=O)O)C(=O)N[C@H](C(=O)N[C@@H](Cc1c[nH]cn1)C(=O)N[C@@H](CC(N)=O)C(=O)N[C@@H](Cc1ccc(O)cc1)C(N)=O)C(C)C)C(C)C [[NMePhe^7,Tyr^34]bPTH(7-34)NH2]
- Ki: 0.082 ± 0.014 µM
